From US11332459B2 (TEIJIN PHARMA LIMITED, priority 2017, dated 2022) come the findings set out here.

The structures appear in SMILES notation. Where a name gives a salt, the structure may show the parent alone.

For this assay, the target named is T1, human TRPC6 (Homo sapiens, UniProt Q9Y210).
T1 construct: expressed in transfected cells
T1 sequence (Q9Y210 1-931): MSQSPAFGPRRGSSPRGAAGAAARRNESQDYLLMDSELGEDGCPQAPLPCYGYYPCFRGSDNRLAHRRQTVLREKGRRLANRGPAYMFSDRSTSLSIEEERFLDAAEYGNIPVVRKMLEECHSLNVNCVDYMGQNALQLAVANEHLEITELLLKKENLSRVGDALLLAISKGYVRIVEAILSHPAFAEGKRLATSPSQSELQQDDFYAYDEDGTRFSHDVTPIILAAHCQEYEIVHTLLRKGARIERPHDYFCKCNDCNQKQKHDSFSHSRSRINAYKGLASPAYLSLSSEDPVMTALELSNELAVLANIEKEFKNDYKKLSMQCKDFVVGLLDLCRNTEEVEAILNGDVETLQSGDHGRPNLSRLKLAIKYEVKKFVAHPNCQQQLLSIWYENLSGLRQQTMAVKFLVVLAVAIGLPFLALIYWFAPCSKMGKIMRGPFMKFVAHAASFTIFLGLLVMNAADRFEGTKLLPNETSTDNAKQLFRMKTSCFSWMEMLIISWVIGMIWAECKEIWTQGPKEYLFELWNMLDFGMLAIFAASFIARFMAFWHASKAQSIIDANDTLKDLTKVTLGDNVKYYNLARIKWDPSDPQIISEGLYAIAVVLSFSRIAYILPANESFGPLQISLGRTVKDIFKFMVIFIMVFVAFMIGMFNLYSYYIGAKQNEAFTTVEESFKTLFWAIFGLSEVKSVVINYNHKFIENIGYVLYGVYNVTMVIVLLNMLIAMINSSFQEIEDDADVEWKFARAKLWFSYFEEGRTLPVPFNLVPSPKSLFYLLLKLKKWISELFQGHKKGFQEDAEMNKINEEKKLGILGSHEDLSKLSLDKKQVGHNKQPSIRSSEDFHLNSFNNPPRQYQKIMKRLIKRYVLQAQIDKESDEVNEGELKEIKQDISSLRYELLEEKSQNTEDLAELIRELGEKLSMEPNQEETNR
Briefly: TRPC6 calcium flux assay (FLIPR, OAG-stimulated calcium influx). The class given is cell-based. As to conditions: HEK293 cells stably transfected with human TRPC6, read-out: hTRPC6 Potency. Summed up: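 IC50 derived by plotting background-corrected peak fluorescence (180 s window, normalized to OAG-triggered signal vs buffer) against dose. Stable human TRPC6 HEK293 line was dye-loaded, exposed to compound 25 min, then challenged with 50 uM final OAG in 2 mM Ca2+ HEPES buffer pH 7.2, 0.5% DMSO.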
With `N#Cc1ccc(Cn2c(N3CC[C@H](F)[C@H](N)C3)nc3ccc(Cl)cc32)cc1` [Example 401, 4-((2-((3R,4S)-3-amino-4-fluoropiperidin-1-yl)-6-chloro-1H-benzo[d]imidazol-1-yl)methyl)benzonitrile hydrochloride], the IC50 amounted to 0.456 nM.

Turning to `N[C@@H]1CCCN(c2nc3ccccc3n2Cc2ccc(-n3cncn3)cc2)C1` [Example 371, (R)-1-(1-(4-(1H-1,2,4-triazol-1-yl)benzyl)-1H-benzo[d]imidazol-2-yl)piperidin-3-amine], the IC50 was determined as 6830 nM.

Turning to `N[C@@H]1CN(c2nc3cc(F)cc(F)c3n2Cc2nnc(C(F)F)s2)CC[C@H]1F` [Example 598, (3R,4R)-1-(1-((5-(difluoromethyl)-1,3,4-thiadiazol-2-yl)methyl)-5,7-difluoro-1H-benzo[d]imidazol-2-yl)-4-fluoropiperidin-3-amine], the IC50 was above 3750 nM.

As for `Cc1cc2nc(N3CC[C@@H](F)[C@H](N)C3)n(Cc3ccc(C#N)cn3)c2cc1F` [Example 114, 6-((2-((3R,4R)-3-amino-4-fluoro-1-piperidinyl)-6-fluoro-5-methyl-1H-benzimidazol-1-yl)methyl)-3-pyridinecarbonitrile], the IC50 amounted to 0.382 nM.

For the compound `N[C@@H]1CN(c2nc3ccc(F)cc3n2CC(=O)N(CC(F)(F)F)[C@H]2CCOC2)CC[C@H]1F` [Example 667, 2-(2-((3R,4R)-3-amino-4-fluoropiperidin-1-yl)-6-fluoro-1H-benzo[d]imidazol-1-yl)-N-((S)-tetrahydrofuran-3-yl)-N-(2,2,2-trifluoroethyl)acetamide], the IC50 was 745 nM.

For `N#Cc1ccc2c(c1)nc(N1CC[C@H](F)[C@H](N)C1)n2CC(=O)N1CCC1` [Example 288, 2-((3R,4S)-3-amino-4-fluoro-1-piperidinyl)-1-(2-(1-azetidinyl)-2-oxoethyl)-1H-benzimidazole-5-carbonitrile], the IC50 is above 3750 nM.

As for `Cc1cnc(Cn2c(N3CC[C@@H](F)[C@H](N)C3)nc3cc(F)c(F)cc32)s1` [Example 551, (3R,4R)-1-(5,6-difluoro-1-((5-methylthiazol-2-yl)methyl)-1H-benzo[d]imidazol-2-yl)-4-fluoropiperidin-3-amine], the IC50 was 6.1 nM.

As for `N#Cc1ccc(Cn2c(N3CC[C@@H](F)[C@H](N)C3)nc3c(Cl)cccc32)nc1` [Example 4], the IC50 worked out at 1.67 nM.

Take `N[C@@H]1CN(c2nc3cc(F)c(F)cc3n2Cc2ccc(C(F)(F)F)cc2)CC[C@H]1F` [Example 361, (3R,4R)-1-(5,6-difluoro-1-(4-(trifluoromethyl)benzyl)-1H-benzimidazol-2-yl)-4-fluoro-3-piperidinamine]: the IC50 was 66.8 nM.

In the case of `Cc1csc(Cn2c(N3CC[C@@H](F)[C@H](N)C3)nc3cc(F)c(F)cc32)n1` [Example 568, (3R,4R)-1-(5,6-difluoro-1-((4-methylthiazol-2-yl)methyl)-1H-benzo[d]imidazol-2-yl)-4-fluoropiperidin-3-amine], the IC50 worked out at 48.1 nM.

With `COc1cccc2c1nc(N1CC[C@@H](F)[C@H](N)C1)n2Cc1ccc(C#N)cc1` [Example 411, 4-((2-((3R,4R)-3-amino-4-fluoropiperidin-1-yl)-4-methoxy-1H-benzo[d]imidazol-1-yl)methyl)benzonitrile], the IC50 was 2.68 nM.

With `CCN(CC1CCN(C(C)=O)C1)C(=O)Cn1c(N2CC[C@@H](F)[C@H](N)C2)nc2cc(F)c(F)cc21` (mixture of isomers) [Example 650, N-((1-acetylpyrrolidin-3-yl)methyl)-2-(2-((3R,4R)-3-amino-4-fluoropiperidin-1-yl)-5,6-difluoro-1H-benzo[d]imidazol-1-yl)-N-ethylacetamide], the IC50 is above 1750 nM.

Turning to `CN(CC(F)(F)F)C(=O)Cn1c(N2CC[C@@H](F)[C@H](N)C2)nc2ccc(F)cc21` [Example 445, 2-(2-((3R,4R)-3-amino-4-fluoropiperidin-1-yl)-6-fluoro-1H-benzo[d]imidazol-1-yl)-N-methyl-N-(2,2,2-trifluoroethyl)acetamide], the IC50 came out at 20.8 nM.

With `N[C@@H]1CN(c2nc3cc(F)c(F)cc3n2[C@@H]2CCN(c3ccc(Cl)cc3)C2=O)CC[C@H]1F` [Example 248, (R)-3-(2-((3R,4R)-3-amino-4-fluoropiperidin-1-yl)-5,6-difluoro-1H-benzo[d]imidazol-1-yl)-1-(4-chlorophenyl)pyrrolidin-2-one], the IC50 amounted to 5.07 nM.

As for `N#Cc1ccc(Cn2c(N3CC[C@@H](F)[C@H](N)C3)nc3cc(OC(F)(F)F)c(Cl)cc32)nc1` [Example 124, 6-((2-((3R,4R)-3-amino-4-fluoro-1-piperidinyl)-6-chloro-5-(trifluoromethoxy)-1H-benzimidazol-1-yl)methyl)-3-pyridinecarbonitrile], the IC50 came to 0.741 nM.

Turning to `Cc1cc2c(cc1Cl)nc(N1CC[C@@H](F)[C@H](N)C1)n2Cc1ccc(C#N)cn1` [Example 113, 6-((2-((3R,4R)-3-amino-4-fluoro-1-piperidinyl)-5-chloro-6-methyl-1H-benzimidazol-1-yl)methyl)-3-pyridinecarbonitrile], the IC50 came out at 0.286 nM.

As to `CC(=O)NC1CCCN(C(=O)Cn2c(N3CC[C@@H](F)[C@H](N)C3)nc3cc(F)c(F)cc32)C1` (stereo partly drawn) [Example 535, N-(1-(2-(2-((3R,4R)-3-amino-4-fluoropiperidin-1-yl)-5,6-difluoro-1H-benzo[d]imidazol-1-yl)acetyl)piperidin-3-yl)acetamide], the IC50 is above 3750 nM.

On to `N#Cc1ccc(Cn2c(N3CC[C@H](F)[C@H](N)C3)nc3cc(Cl)c(Cl)cc32)nc1` [Example 82, 6-((2-((3R,4S)-3-amino-4-fluoropiperidin-1-yl)-5,6-dichloro-1H-benzo[d]imidazol-1-yl)methyl)nicotinonitrile hydrochloride], for which the IC50 came out at 0.504 nM.

As to `COCC1(C#N)CCN(C(=O)Cn2c(N3CC[C@@H](F)[C@H](N)C3)nc3cc(F)c(F)cc32)CC1` [Example 658, 1-(2-(2-((3R,4R)-3-amino-4-fluoropiperidin-1-yl)-5,6-difluoro-1H-benzo[d]imidazol-1-yl)acetyl)-4-(methoxymethyl)piperidine-4-carbonitrile], the IC50 was above 3750 nM.

`N[C@@H]1CN(c2nc3cc(F)c(F)cc3n2Cc2cccc3ncccc23)CC[C@H]1F` [Example 260, (3R,4R)-1-(5,6-difluoro-1-(5-quinolinylmethyl)-1H-benzimidazol-2-yl)-4-fluoro-3-piperidinamine]: the IC50 was determined as 376 nM.

On to `N#Cc1ccc(Cn2c(N3CCC(F)(F)[C@H](N)C3)nc3cc(C#N)ccc32)cc1` [Example 161, 2-((3R)-3-amino-4,4-difluoro-1-piperidinyl)-1-(4-cyanobenzyl)-1H-benzimidazole-5-carbonitrile], for which the IC50 worked out at 133 nM.

As for `N[C@@H]1CN(c2nc3cc(F)c(F)cc3n2CC(=O)N2CCn3ncnc3C2)CC[C@H]1F` [Example 646, 2-(2-((3R,4R)-3-amino-4-fluoropiperidin-1-yl)-5,6-difluoro-1H-benzo[d]imidazol-1-yl)-1-(5,6-dihydro-[1,2,4]triazolo[1,5-a]pyrazin-7(8H)-yl)ethanone], the IC50 is 2310 nM.

In the case of `C[C@@H](C#N)N(C)C(=O)Cn1c(N2CC[C@@H](F)[C@H](N)C2)nc2cc(F)c(F)cc21` [Example 610, 2-(2-((3R,4R)-3-amino-4-fluoropiperidin-1-yl)-5,6-difluoro-1H-benzo[d]imidazol-1-yl)-N-((S)-1-cyanoethyl)-N-methylacetamide], the IC50 was 21.2 nM.

For `CC(N(C)C(=O)Cn1c(N2CC[C@@H](F)[C@H](N)C2)nc2cc(F)c(F)cc21)C(F)(F)F` (mixture of isomers) [Example 614, 2-(2-((3R,4R)-3-amino-4-fluoropiperidin-1-yl)-5,6-difluoro-1H-benzo[d]imidazol-1-yl)-N-methyl-N-(1,1,1-trifluoropropan-2-yl)acetamide], the IC50 was 24.8 nM.

Consider `N#Cc1ccc2c(c1)CC[C@@H]2n1c(N2CC[C@@H](F)[C@H](N)C2)nc2ccccc21` [Example 232, (S)-1-(2-((3R,4R)-3-amino-4-fluoropiperidin-1-yl)-1H-benzo[d]imidazol-1-yl)-2,3-dihydro-1H-indene-5-carbonitrile hydrochloride], for which the IC50 turned out to be 2.16 nM.

As for `N[C@@H]1CN(c2nc3ccc(F)cc3n2Cc2ncc(Cl)cn2)CC[C@H]1O` [Example 205, (3R,4R)-3-amino-1-(1-((5-chloropyrimidin-2-yl)methyl)-6-fluoro-1H-benzo[d]imidazol-2-yl)piperidin-4-ol], the IC50 was found to be 3 nM.
